Source: patent US9420796B2 (priority 2013, dated 2016)
Values joined by “and” are separate entries in the source; they are usually repeats but may differ in a detail not shown here. Identical values can stand only once.

Tests used:
zebra mussels = conditions: in vivo; cited from earlier work
adult mussels = test system: adult mussels; design: species or system zebra mussels; conditions: in vivo

Compound | Mortality rate (zebra mussels) | Day of treatment on which complete mortality was observed (adult mussels)
[K+].[O]=[Mn](=[O])(=[O])[O-] [KMnO] | ≤ 10% | –
OCl [NaOCl, sodium hypochlorite] | ≤ 10% | 18 days and 23 days
